Laboratory results as given in the NIST ThermoML archive (doi:10.1021/je060479w).
± gives the expanded uncertainty stated by the source.

Settings: 298.2 K; 101.33 kPa; Liquid; Alternating current cell with electrodes

| Structure (SMILES) | electrical conductivity [S/m] |
| --- | --- |
| CC(O)C(=O)O.OCCN(CCO)CCO [triethanolamine lactate] | 0.009 ± 0.001 |
| CC(O)C(=O)[O-].[NH3+]CCO (stereo unspecified) [2-hydroxyethylammonium lactate] | 0.03775 ± 1e-05 |
| CC(=O)O.OCCN(CCO)CCO [triethanolammonium acetate] | 0.04958 ± 1e-05 |
| NCCO.O=CO [2-hydroxyethylammonium formate] | 0.3291 ± 0.0001 |
| CC(=O)[O-].[NH3+]CCO [2-hydroxyethylammonium acetate] | 0.0692 ± 0.0001 |

Same assay, conditions: 298.2 K; 101.33 kPa; Liquid; Pycnometric method

| Structure (SMILES) | mass density [kg/m3] |
| --- | --- |
| CC(O)C(=O)O.OCCN(CCO)CCO [triethanolamine lactate] | 1222 ± 26 |
| CC(O)C(=O)[O-].[NH3+]CCO (stereo unspecified) [2-hydroxyethylammonium lactate] | 1202 ± 26 |
| CC(=O)O.OCCN(CCO)CCO [triethanolammonium acetate] | 1120 ± 26 |
| NCCO.O=CO [2-hydroxyethylammonium formate] | 1204 ± 26 |
| CC(=O)[O-].[NH3+]CCO [2-hydroxyethylammonium acetate] | 1120 ± 26 |

Same assay, conditions: 298.2 K; 101.33 kPa; Liquid; rotary viscometer

| Structure (SMILES) | viscosity [mPa·s] |
| --- | --- |
| CC(O)C(=O)O.OCCN(CCO)CCO [triethanolamine lactate] | 455 |
| CC(O)C(=O)[O-].[NH3+]CCO (stereo unspecified) [2-hydroxyethylammonium lactate] | 1200 |
| CC(=O)O.OCCN(CCO)CCO [triethanolammonium acetate] | 342 |
| NCCO.O=CO [2-hydroxyethylammonium formate] | 118 |
| CC(=O)[O-].[NH3+]CCO [2-hydroxyethylammonium acetate] | 640 |

Same assay, conditions: Crystal; DTA

| Structure (SMILES) | Normal melting temperature [°C] |
| --- | --- |
| CC(O)C(=O)O.OCCN(CCO)CCO [triethanolamine lactate] | -54.8 ± 0.5 |
| CC(O)C(=O)[O-].[NH3+]CCO (stereo unspecified) [2-hydroxyethylammonium lactate] | -58.5 ± 0.5 |
| CC(=O)O.OCCN(CCO)CCO [triethanolammonium acetate] | -72.2 ± 0.5 |
| NCCO.O=CO [2-hydroxyethylammonium formate] | -82.2 ± 0.5 |
| CC(=O)[O-].[NH3+]CCO [2-hydroxyethylammonium acetate] | -70.9 ± 0.5 |
| O=CO.OCCN(CCO)CCO [triethanolamine formate] | 67.6 ± 0.5 |

Same assay, conditions: Glass; DTA

| Structure (SMILES) | Glass transition temperature [°C] |
| --- | --- |
| CC(O)C(=O)O.OCCN(CCO)CCO [triethanolamine lactate] | -59.4 ± 5 |
| CC(O)C(=O)[O-].[NH3+]CCO (stereo unspecified) [2-hydroxyethylammonium lactate] | -63.7 ± 5 |
| CC(=O)O.OCCN(CCO)CCO [triethanolammonium acetate] | -78.8 ± 5 |
| NCCO.O=CO [2-hydroxyethylammonium formate] | -85.9 ± 5 |
| CC(=O)[O-].[NH3+]CCO [2-hydroxyethylammonium acetate] | -75.8 ± 5 |
